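These data come from cells grown in 96-well plates and exposed to compound for 48 hours at five concentrations. The concentration for 50% growth inhibition is given as GI50.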 The source made the active and inactive calls. Rule as the data show it: active = GI50 up to about 1.1 µM and inactive = higher.
How the values were obtained:
Assay in all cases: NCI anticancer screen, dose series, 48 h
[1] = test system: 786-0
[2] = test system: A549
[3] = test system: CAKI-1
[4] = test system: CCRF-CEM
[5] = test system: COLO 205
[6] = test system: DU-145
[7] = test system: EKVX
[8] = test system: HCC 2998
[9] = test system: HCT-15
[10] = test system: HL-60
[11] = test system: HOP-62
[12] = test system: HT-29
[13] = test system: IGROV-1
[14] = test system: K562
[15] = test system: KM12
[16] = test system: LOX IMVI
[17] = test system: M14
[18] = test system: MCF7
[19] = test system: MDA-MB-231
[20] = test system: MDA-N
[21] = test system: MOLT-4
[22] = test system: Malme-3M
[23] = test system: NCI-H23
[24] = test system: OVCAR-8
[25] = test system: PC-3
[26] = test system: RPMI-8226
[27] = test system: RXF 393
[28] = test system: SF-268
[29] = test system: SF-295
[30] = test system: SK-MEL-28
[31] = test system: SK-MEL-5
[32] = test system: SK-OV-3
[33] = test system: SN12C
[34] = test system: SNB-75
[35] = test system: SR
[36] = test system: SW-620
[37] = test system: T47D
[38] = test system: TK-10
[39] = test system: UACC-257
[40] = test system: UACC-62
[41] = test system: A498
[42] = test system: ACHN
[43] = test system: BT-549
[44] = test system: HCT-116
[45] = test system: HOP-92
[46] = test system: Hs-578T
[47] = test system: MDA-MB-435
[48] = test system: NCI-H226
[49] = test system: NCI-H460
[50] = test system: NCI-H522
[51] = test system: NCI/ADR-RES
[52] = test system: OVCAR-3
[53] = test system: OVCAR-4
[54] = test system: OVCAR-5
[55] = test system: SF-539
[56] = test system: SK-MEL-2
[57] = test system: SNB-19
[58] = test system: U-251
[59] = test system: UO-31

`Cc1c(CCN=P(c2ccccc2)(c2ccccc2)c2ccccc2)c(=O)n2c([nH]c3ccccc32)c1C#N` was tested, and the GI50 [1] was > 10 µM (inactive), the GI50 [2] was > 10 µM (inactive) and the GI50 [3] was > 10 µM (inactive). The GI50 [4] was 6.93 µM (inactive), the GI50 [5] was > 10 µM (inactive) and the GI50 [6] was > 10 µM (inactive). For the same compound, the GI50 [7] was > 10 µM (inactive), the GI50 [8] was > 10 µM (inactive) and the GI50 [9] was > 10 µM. The GI50 [10] was 7.21 µM (inactive), the GI50 [11] was > 10 µM (inactive) and the GI50 [12] was > 10 µM (inactive). The GI50 [13] was > 10 µM (inactive), the GI50 [14] was 8.36 µM (inactive) and the GI50 [15] was > 10 µM (inactive). For the same compound, the GI50 [16] was > 10 µM (inactive), the GI50 [17] was > 10 µM (inactive) and the GI50 [18] was > 10 µM (inactive). The GI50 [19] was > 10 µM (inactive), the GI50 [20] was > 10 µM (inactive) and the GI50 [21] was 6.19 µM (inactive). The GI50 [22] was > 10 µM (inactive), the GI50 [23] was > 10 µM (inactive) and the GI50 [24] was > 10 µM (inactive). The GI50 [25] was > 10 µM (inactive), the GI50 [26] was > 10 µM (inactive) and the GI50 [27] was > 10 µM (inactive). For the same compound, the GI50 [28] was > 10 µM (inactive), the GI50 [29] was > 10 µM (inactive) and the GI50 [30] was > 10 µM (inactive). For the same compound, the GI50 [31] was > 10 µM (inactive), the GI50 [32] was > 10 µM (inactive) and the GI50 [33] was > 10 µM (inactive). For the same compound, the GI50 [34] was > 10 µM (inactive), the GI50 [35] was 8.75 µM (inactive) and the GI50 [36] was > 10 µM (inactive). For the same compound, the GI50 [37] was > 10 µM (inactive), the GI50 [38] was > 10 µM (inactive) and the GI50 [39] was > 10 µM (inactive). For the same compound, the GI50 [40] was > 10 µM (inactive).
With `Cc1ccc([N+](=O)[O-])c2c(NCCC[N+](C)(C)[O-])c3ccccc3nc12` the GI50 [1] was 2.02 µM (inactive), the GI50 [41] was 1.89 µM (inactive) and the GI50 [2] was 1.53 µM (inactive). The GI50 [42] was 5.57 µM (inactive), the GI50 [43] was 1.5 µM (inactive) and the GI50 [3] was 21 µM (inactive). The GI50 [4] was 2.07 µM (inactive), the GI50 [5] was 1.02 µM (active) and the GI50 [6] was 1.43 µM (inactive). For the same compound, the GI50 [7] was 1.11 µM (active), the GI50 [8] was 0.841 µM (active) and the GI50 [44] was 1.52 µM (inactive). For the same compound, the GI50 [9] was 4.99 µM, the GI50 [10] was 4 µM (inactive) and the GI50 [11] was 2.56 µM (inactive). The GI50 [45] was 0.962 µM (active), the GI50 [12] was 1.48 µM (inactive) and the GI50 [46] was 3.24 µM (inactive). The GI50 [13] was 1.19 µM (inactive), the GI50 [14] was 1.52 µM (inactive) and the GI50 [15] was 1.79 µM (inactive). The GI50 [16] was 2.04 µM (inactive), the GI50 [17] was 2.34 µM (inactive) and the GI50 [18] was 0.401 µM (active). The GI50 [19] was 1.86 µM (inactive), the GI50 [47] was 1.77 µM (inactive) and the GI50 [21] was 0.33 µM (active). The GI50 [22] was 1.22 µM (inactive), the GI50 [48] was 2.24 µM (inactive) and the GI50 [23] was 0.573 µM (active). The GI50 [49] was 0.716 µM (active), the GI50 [50] was 0.204 µM (active) and the GI50 [51] was > 95.3 µM (inactive). For the same compound, the GI50 [52] was 2.19 µM (inactive), the GI50 [53] was 2.02 µM (inactive) and the GI50 [54] was 3.41 µM (inactive). For the same compound, the GI50 [24] was 4.75 µM (inactive), the GI50 [25] was 0.755 µM (active) and the GI50 [26] was 2.74 µM (inactive). The GI50 [27] was 1.35 µM (inactive), the GI50 [28] was 2.47 µM (inactive) and the GI50 [29] was 3.43 µM (inactive). The GI50 [55] was 2.6 µM (inactive), the GI50 [30] was 3.68 µM (inactive) and the GI50 [56] was 0.773 µM (active). For the same compound, the GI50 [31] was 0.998 µM (active), the GI50 [32] was 3.86 µM (inactive) and the GI50 [33] was 2.19 µM (inactive). For the same compound, the GI50 [57] was 1.17 µM (inactive), the GI50 [34] was 0.655 µM (active) and the GI50 [35] was 0.218 µM (active). The GI50 [36] was 2.18 µM (inactive), the GI50 [37] was 0.916 µM (active) and the GI50 [38] was 11.6 µM (inactive). For the same compound, the GI50 [58] was 1.32 µM (inactive), the GI50 [39] was 2.41 µM (inactive) and the GI50 [40] was 1.64 µM (inactive). For the same compound, the GI50 [59] was 16.1 µM (inactive).

Source: ChEMBL document CHEMBL1201862, “PubChem BioAssay data set” (2004)
